From patent US20090186929A1, “Method and agent for inducing apoptosis/cell death in leukemia cells” (U.S. DEPARTMENT OF VETERANS AFFAIRS, priority 2003, published 2009)

How the values were obtained:
CLL cells [1] = test: Cytotoxicity of NOS inhibitors for CLL cells in vitro (MTS assay); conditions: cytotoxicity for CLL cells in vitro
Source text: We worked to optimize the culture of CLL cells (Reference 86). […] These were all tested with and without albumin, fetal bovine serum, human serum, glutamine, insulin, transferrin, selenium, and mercaptoethanol.
Toxicity could be detected by disappearance of cells from the culture (reduction in overall cell number), uptake of trypan blue, propidium iodide uptake (flow cytometry), MTS (4,5-dimethylthiazol-2-yl)-5-(3-carboxymethoxyphenyl)-2-(4-sulfophenyl)-2H-tetrazolium, inner salt) assay (cellular respiration), and several parameters of apoptosis [annexin V assay, DNA content […], and TUNEL assay].

[2] = normals, trials for septic shock and migraine; cited from earlier work
CLL cells [3] = test: CLL cell apoptosis (TUNEL assay); format: cell-based, human; conditions: CLL cells in vitro
Description: Culture of cells with IL-4 or IFN-γ (but not TNF-α, IL-2, IL-6, IL-8, G-CSF, nerve growth factor, or IFN-α) increased NO production. By quantitative RT-PCR, IL-4 increased NOS2 mRNA (FIG. 8). Also, 5 of 5 patients' CLL cells had increases in NOS2 protein (immunoblot) after in vitro treatment with IL-4. Apoptosis (TUNEL assay) was induced by NMMA treatment of the cells, and incubating cells with IL-4 or IFN-y reduced apoptosis. […] Since IL-4 and IFN-gamma induce NOS2 and modulate CD38 expression in CLL cells in vitro, we sought to determine if CLL patients had elevated levels of these cytokines and if the levels related to CD38 expression by the leukemia cells (Reference 87).

CLL cells [4] = test: Cytotoxicity of NOS inhibitors for CLL cells in vitro (PI exclusion assay); format: cell-based; conditions: Homo sapiens, CLL cell, read-out: Mean ED50 ± S.E.M. (CLL cell cytotoxicity)
Source text: Toxicity could be detected by disappearance of cells from the culture (reduction in overall cell number), uptake of trypan blue, propidium iodide uptake (flow cytometry), MTS (4,5-dimethylthiazol-2-yl)-5-(3-carboxymethoxyphenyl)-2-(4-sulfophenyl)-2H-tetrazolium, inner salt) assay (cellular respiration), and several parameters of apoptosis [annexin V assay, DNA content (<in), and TUNEL assay].

[5] = target: T1, purified recombinant human NOS2 oxygenase domain (Homo sapiens, UniProt P35228); test: NOS inhibitor binding (Kd) to NOS2
T1 construct: purified recombinant human NOS2 oxygenase domain
T1 sequence (P35228 1-504 limits assumed): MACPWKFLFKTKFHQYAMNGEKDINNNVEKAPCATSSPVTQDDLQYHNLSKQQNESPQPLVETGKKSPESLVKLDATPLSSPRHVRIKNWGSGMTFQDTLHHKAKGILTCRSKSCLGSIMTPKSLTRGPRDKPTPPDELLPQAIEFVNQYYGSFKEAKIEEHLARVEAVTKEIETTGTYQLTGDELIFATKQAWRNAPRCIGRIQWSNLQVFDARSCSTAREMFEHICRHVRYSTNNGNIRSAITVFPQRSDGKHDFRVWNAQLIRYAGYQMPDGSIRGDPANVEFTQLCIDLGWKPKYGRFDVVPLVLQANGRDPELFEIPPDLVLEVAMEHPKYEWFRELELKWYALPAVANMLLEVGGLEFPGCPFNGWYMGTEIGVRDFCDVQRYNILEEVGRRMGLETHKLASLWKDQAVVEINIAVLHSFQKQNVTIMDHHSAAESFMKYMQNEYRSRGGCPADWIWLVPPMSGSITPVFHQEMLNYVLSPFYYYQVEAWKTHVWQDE
Description: […] The cLogP value for each NOS inhibitor was determined using the CLOGP computer program (BioByte, Claremont, Calif.). […] Linear regression was used to examine the correlation between the IC50, Kd and cLogP values and ED50 values.
We determined the dissociation constant for NOS inhibitor binding (Kd) to purified recombinant and NOS2.

[6] = target: T2, purified recombinant rat NOS1 oxygenase domain (Rattus norvegicus, UniProt P29476); test: NOS inhibitor binding (Kd) to NOS1
T2 construct: purified recombinant rat NOS1 oxygenase domain
T2 sequence (P29476 1-720 limits assumed): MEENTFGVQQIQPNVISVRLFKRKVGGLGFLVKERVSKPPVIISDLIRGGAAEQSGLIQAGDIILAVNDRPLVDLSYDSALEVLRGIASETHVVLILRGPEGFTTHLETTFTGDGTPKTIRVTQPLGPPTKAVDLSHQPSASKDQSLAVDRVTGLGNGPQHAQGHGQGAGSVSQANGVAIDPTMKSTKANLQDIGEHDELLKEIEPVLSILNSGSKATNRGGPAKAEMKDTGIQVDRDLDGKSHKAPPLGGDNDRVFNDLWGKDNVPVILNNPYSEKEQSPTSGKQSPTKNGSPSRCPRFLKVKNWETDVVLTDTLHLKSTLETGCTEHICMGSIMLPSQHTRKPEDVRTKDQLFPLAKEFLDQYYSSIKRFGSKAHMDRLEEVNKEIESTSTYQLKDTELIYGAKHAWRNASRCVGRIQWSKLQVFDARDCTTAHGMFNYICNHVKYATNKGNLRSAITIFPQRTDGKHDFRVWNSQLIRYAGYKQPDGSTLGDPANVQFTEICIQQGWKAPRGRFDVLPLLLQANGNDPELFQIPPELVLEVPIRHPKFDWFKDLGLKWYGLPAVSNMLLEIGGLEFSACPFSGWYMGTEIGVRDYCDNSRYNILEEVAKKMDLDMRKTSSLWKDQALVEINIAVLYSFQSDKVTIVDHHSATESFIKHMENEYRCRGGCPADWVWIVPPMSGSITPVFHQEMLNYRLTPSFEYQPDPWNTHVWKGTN

| SMILES | ED50 ranking, FIG. 10 (CLL cells [1]) | Effects on cardiovascular, liver, or hematopoietic function [2] | Apoptosis (TUNEL assay) (CLL cells [3]) | EC50 (CLL cells [4]) | Kd [5] | Kd [6] |
| --- | --- | --- | --- | --- | --- | --- |
| CC(=O)O.CNC(=N)NCCC[C@H](N)C(=O)O [L-NMMA, N^G-Monomethyl-L-arginine monoacetate] | very high ED50 | no major effects | induced | – | – | – |
| C=CCC(=N)NCCC[C@H](N)C(=O)O [Vinyl-L-NIO, N^5-(1-Imino-3-butenyl)-L-ornithine] | – | – | – | 1190 ± 456 µM | 0.5 µM | 0.1 µM |
